In ChEMBL document CHEMBL1201862, “PubChem BioAssay data set” (2004):
The source made the active and inactive calls.

Experiments:
[1] = cytotoxicity in HEK-293T cells, dose response, cytotoxicity control for TCR NF-kB inhibitor project, luminescence, T-cell screen hits (AID 489026); format: functional, cell-based;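 also: cells exposed to compound about 14 hours before the viability readout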
BJ [2] = test: cytotoxicity toward BJ-TERT-LT-ST fibroblasts, dose response, cell-based, RAS-independent, luminescence (AID 1935); format: functional; settings: Homo sapiens;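 also: BJ fibroblasts immortalized with TERT plus LT and ST oncogenes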
[3] = Luminescence Cell-Based Dose Confirmation HTS to Identify Inhibitors of Platelet Dense Granule Release. [Related pubchem assays: 1663 (Primary HTS), 1678 (Summary of Project)]; format: functional
BJ [4] = test: cytotoxicity toward BJ-TERT fibroblasts, dose response, cell-based, RAS-independent, luminescence (AID 1933); format: functional; settings: Homo sapiens
BJ [5] = test: cells; format: functional, cell-based; settings: Homo sapiens
[6] = target: Luciferin 4-monooxygenase (Photinus pyralis, UniProt P08659); test: firefly luciferase enzyme inhibitors, dose response, biochemical, luminescence (AID 1891)
[7] = cytotoxicity toward DRD oncogenic fibroblasts, dose response, cell-based, non-viral oncogenic, luminescence (AID 1934); format: functional; settings: Homo sapiens
[8] = target: Glyceraldehyde-3-phosphate dehydrogenase (Homo sapiens, UniProt P04406)
[9] = target: T1, Tyrosine-protein phosphatase non-receptor type 7 (Homo sapiens, UniProt P35236); format: functional
T1 sequence (P35236 whole entry): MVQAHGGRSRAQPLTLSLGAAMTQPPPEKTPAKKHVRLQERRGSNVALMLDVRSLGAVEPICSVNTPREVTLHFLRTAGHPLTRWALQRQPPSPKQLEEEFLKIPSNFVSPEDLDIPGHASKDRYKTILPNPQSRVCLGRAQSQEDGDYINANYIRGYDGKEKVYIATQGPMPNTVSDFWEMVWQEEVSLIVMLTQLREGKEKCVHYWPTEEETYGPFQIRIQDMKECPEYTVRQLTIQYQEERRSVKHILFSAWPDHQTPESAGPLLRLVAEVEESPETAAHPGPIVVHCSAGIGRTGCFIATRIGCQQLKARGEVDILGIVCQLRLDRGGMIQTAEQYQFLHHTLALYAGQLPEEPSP

[10] = target: T2, Dual specificity protein phosphatase 6 (Rattus norvegicus, UniProt Q64346)
T2 sequence (Q64346 whole entry): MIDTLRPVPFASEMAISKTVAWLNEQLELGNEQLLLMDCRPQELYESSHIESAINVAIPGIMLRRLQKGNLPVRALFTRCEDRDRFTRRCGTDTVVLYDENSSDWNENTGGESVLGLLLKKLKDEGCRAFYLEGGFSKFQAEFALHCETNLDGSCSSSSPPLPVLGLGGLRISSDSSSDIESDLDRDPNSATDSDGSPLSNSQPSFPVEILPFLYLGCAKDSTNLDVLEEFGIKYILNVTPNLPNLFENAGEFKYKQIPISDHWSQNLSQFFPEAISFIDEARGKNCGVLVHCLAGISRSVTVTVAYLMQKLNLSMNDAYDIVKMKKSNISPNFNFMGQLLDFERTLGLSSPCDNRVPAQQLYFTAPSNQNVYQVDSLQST

[11] = target: T2, Dual specificity protein phosphatase 6; format: functional
INS1 = test: beta cell apoptosis inhibitors, cytokine rescue, dose response, luminescence, retest (AID 449756); format: functional, cell-based; settings: Rattus norvegicus;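 also: cell death triggered by IL-1 beta plus TNF-alpha plus IFN-gamma mixture; protective hits raise ATP signal compared with cytokine alone wells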
cells [12] = format: functional, cell-based
cells [13] = format: functional, cell-based; remark: listed apart in the source
[14] = target: T3, Microphthalmia-associated transcription factor (Homo sapiens, UniProt O75030); test: TRPM1 promoter luciferase signal decrease, dose response, MITF inhibitor project, cell-based, SK-MEL-5, cherry-picked, set 3 (AID 493073); format: functional
T3 sequence (O75030 whole entry): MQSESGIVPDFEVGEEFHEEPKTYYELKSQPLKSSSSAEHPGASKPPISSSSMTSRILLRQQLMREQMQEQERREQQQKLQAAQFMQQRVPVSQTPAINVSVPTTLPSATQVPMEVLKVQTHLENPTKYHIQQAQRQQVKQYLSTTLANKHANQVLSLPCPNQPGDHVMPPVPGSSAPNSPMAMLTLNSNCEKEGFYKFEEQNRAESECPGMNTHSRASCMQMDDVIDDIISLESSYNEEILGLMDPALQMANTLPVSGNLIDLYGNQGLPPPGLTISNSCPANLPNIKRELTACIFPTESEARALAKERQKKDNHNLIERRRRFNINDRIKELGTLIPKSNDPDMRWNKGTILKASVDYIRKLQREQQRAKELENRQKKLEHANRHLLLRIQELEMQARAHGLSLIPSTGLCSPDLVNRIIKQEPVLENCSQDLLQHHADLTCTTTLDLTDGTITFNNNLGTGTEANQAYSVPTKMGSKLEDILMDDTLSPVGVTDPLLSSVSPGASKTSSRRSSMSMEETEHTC

[15] = NIH-3T3 fibroblast cytotoxicity, dose response, cytotoxicity control, cell-based, fluorescence, Alamar Blue, secondary assay (AID 2327); format: functional;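 also: NIH-3T3 mouse fibroblasts cultured with fluconazole at 8 µg/mL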
[16] = C. albicans growth with fluconazole, confirmation, fluorescence, retest (AID 2467); format: functional, cell-based
A-375 = test: A375 melanoma cell viability reduction, dose response, counter-screen for MITF modulator project, cherry-pick samples, set 2 (AID 540335); format: functional, cell-based; settings: Homo sapiens
[17] = target: T4, Serine/threonine-protein phosphatase (Candida dubliniensis (strain CD36 / CBS 7987 / NCPF 3949 / NRRLY-17841) (Yeast), UniProt B9W6M3); test: calcineurin pathway inhibitors in yeast reporter, dose response, S. cerevisiae, CDRE-lacZ, luminescence, secondary (AID 2388); format: functional, cell-based;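 also: yeast reporter cells carrying a calcineurin-responsive lacZ construct stimulated with calcium chloride; luminescent beta-galactosidase reporter signal in whole cells rather than isolated phosphatase activity; potency for inhibition where a drop in reporter signal means calcineurin blockade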
T4 sequence (B9W6M3 whole entry): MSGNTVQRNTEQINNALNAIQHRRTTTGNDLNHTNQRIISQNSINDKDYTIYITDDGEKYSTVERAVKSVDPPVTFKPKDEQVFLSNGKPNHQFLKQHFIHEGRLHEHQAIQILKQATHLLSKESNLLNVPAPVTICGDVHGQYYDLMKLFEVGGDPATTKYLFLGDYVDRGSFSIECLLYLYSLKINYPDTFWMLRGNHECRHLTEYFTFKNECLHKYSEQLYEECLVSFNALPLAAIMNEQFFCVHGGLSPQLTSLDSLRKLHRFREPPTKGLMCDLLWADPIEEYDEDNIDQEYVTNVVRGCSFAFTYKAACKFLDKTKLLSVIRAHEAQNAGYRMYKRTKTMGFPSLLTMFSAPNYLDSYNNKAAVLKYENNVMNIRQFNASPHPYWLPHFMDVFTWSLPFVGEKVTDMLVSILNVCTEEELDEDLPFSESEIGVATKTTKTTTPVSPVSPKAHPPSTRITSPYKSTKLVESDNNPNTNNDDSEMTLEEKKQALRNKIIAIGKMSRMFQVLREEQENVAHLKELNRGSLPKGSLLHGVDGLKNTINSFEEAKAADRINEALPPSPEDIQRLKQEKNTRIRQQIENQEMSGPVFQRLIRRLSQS

[18] = target: ATP-dependent molecular chaperone HSP82 (Candida albicans (strain WO-1) (Yeast), UniProt C4YTQ8); test: loss of DOC-induced GRE-beta-galactosidase reporter signal, dose response, Hsp90 inhibitor project, S. cerevisiae, luminescence (AID 2400); format: functional, cell-based;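 also: beta-galactosidase luminescence from glucocorticoid response element reporter as proxy for Hsp90 function; inhibitor potency where signal loss means Hsp90 inhibition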
[19] = target: T4, Serine/threonine-protein phosphatase; test: Fluorescence Cell-Based Secondary Assay to Identify Inhibitors of Calcineurin. [Related pubchem assays (depositor defined):AID1979, AID2007]; format: functional
HEK293 [20] = test: cytotoxicity in HEK293T NF-kB-Luc cells, SAR follow-up, cytotoxicity control for NF-kB activator project, cell-based, resazurin fluorescence (AID 493251); format: functional; settings: Homo sapiens
HEK293 [21] = test: SAR Analysis of small molecule inhibitors of T-cell specific antigen receptor-induced NF-kB activation in a HEK-293T cell line using a luminescence assay - Set 2. [Related pubchem assays (depositor defined):AID435003, AID435012, AID489026]; format: functional, cell-based; settings: Homo sapiens
Jurkat = test: SAR Analysis of small molecule inhibitors of T-cell specific antigen receptor-induced NF-kB activation in a Jurkat cell line using a luminescence assay - Set 2. [Related pubchem assays (depositor defined):AID435003, AID435012, AID465]; format: functional, cell-based; settings: Homo sapiens
[22] = target: Beta-2 adrenergic receptor (Homo sapiens, UniProt P07550); test: beta2AR agonists driving receptor internalization, dose response, cell-based, FAP fluorogen, flow cytometry, cherry pick 1 (AID 588763); format: functional
SUMO-activating enzyme [23] = target: T5, SUMO-activating enzyme (Homo sapiens, UniProt Q9UBT2); test: inhibitors of in vitro SUMOylation cascade, primary screen, biochemical, HTRF, uHTS (AID 2006); format: protein-complex assay
[24] = target: Eukaryotic translation initiation factor 4E (Mus musculus, UniProt P63073); test: eIF4E–eIF4G protein interaction inhibitors, dose response, biochemical, TR-FRET (AID 855); format: functional;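 also: potency for disrupting eIF4E binding to eIF4GI seen as loss of FRET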
[25] = AlphaScreen signal interference compounds, dose response, artefact control for ARNT-TACC3 interaction inhibitor project, biochemical, luminescence, cherry-pick (AID 651705); format: functional;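 also: AlphaScreen bead proximity signal that flags compounds interfering with the detection technology; potency reflects signal decrease which marks the compound as an assay artifact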
Genome polyprotein = Genome polyprotein (dengue virus type 2, UniProt P29990); test: Dengue-2 NS5 methyltransferase inhibitors, primary screen, biochemical, confirmation dose response (AID 588689); format: functional
Albumin = Albumin (Bos taurus, UniProt P02769); test: Counterscreen for inhibitors of T-cell receptor (TCR)-CD3 interaction: Fluorescence-based biochemical high throughput dose response assay to identify inhibitors of T-cell receptor (TCR)-CD3 interaction using a TAMRA-labeled BSA probe.; format: functional
Vero [26] = test: Vero cell cytotoxicity, cytotoxicity control for flavivirus capping enzyme inhibitors (AID 588742); format: functional; settings: Chlorocebus sabaeus
SUMO-activating enzyme [27] = target: T5, SUMO-activating enzyme; test: SUMOylation inhibitor hit validation, confirmation, SUMOylation inhibitor project, biochemical, AlphaScreen (AID 2018); format: functional
Vero [28] = test: cells; format: functional, cell-based; settings: Chlorocebus sabaeus
[29] = insulin promoter down-regulators in MIN6 cells, imaging, high-content screening, mouse beta cells (AID 1628); format: functional
[30] = cytotoxicity in MIN6 insulinoma cells, dose response, cytotoxicity control, cell-based, mouse insulinoma (AID 2122); format: functional;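 also: confirmatory high-throughput counterscreen run to flag cytotoxic compounds; mouse MIN-6 beta cells carrying an insulin promoter eGFP reporter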
Vero [31] = test: cells; format: functional; settings: Chlorocebus sabaeus

T5 sequence (Q9UBE0 whole entry): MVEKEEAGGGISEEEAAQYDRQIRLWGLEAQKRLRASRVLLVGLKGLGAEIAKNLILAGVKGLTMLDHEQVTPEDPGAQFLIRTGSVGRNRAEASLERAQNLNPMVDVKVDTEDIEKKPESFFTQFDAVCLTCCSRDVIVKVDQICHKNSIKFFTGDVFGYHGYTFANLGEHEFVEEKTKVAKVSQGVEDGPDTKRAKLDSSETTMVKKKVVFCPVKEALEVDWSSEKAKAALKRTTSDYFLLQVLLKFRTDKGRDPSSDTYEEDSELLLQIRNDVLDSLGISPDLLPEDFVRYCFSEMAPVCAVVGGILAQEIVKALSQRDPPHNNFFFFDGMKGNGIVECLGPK
T5 sequence (Q9UBT2 whole entry): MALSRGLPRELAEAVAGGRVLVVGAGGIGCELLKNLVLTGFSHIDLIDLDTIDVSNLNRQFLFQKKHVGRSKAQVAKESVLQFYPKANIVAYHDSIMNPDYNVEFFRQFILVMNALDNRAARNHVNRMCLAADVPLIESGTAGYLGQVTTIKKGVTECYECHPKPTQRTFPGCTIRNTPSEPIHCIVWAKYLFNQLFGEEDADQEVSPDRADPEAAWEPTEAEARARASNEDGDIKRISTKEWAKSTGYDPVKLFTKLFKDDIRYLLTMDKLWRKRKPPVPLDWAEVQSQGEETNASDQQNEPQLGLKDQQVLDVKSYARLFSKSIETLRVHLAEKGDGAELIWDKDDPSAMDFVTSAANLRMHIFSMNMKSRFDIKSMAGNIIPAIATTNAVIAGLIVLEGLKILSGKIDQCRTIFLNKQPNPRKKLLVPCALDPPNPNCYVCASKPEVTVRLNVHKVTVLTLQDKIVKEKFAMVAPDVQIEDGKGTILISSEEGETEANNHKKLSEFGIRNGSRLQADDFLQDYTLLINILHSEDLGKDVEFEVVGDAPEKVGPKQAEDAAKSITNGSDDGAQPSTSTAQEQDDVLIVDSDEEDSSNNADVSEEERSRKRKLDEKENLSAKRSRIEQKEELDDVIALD
Chain of Glyceraldehyde-3-phosphate dehydrogenase (P04406 whole entry): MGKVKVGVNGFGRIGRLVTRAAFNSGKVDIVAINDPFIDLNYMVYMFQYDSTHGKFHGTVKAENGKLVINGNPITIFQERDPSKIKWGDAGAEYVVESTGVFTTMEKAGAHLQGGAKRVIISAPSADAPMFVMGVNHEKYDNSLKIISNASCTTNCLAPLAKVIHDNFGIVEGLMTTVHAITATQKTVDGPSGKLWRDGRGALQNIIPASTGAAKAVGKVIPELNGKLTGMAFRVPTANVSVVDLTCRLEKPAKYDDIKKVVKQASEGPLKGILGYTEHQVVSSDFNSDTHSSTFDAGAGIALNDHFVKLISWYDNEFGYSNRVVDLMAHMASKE
Chain of Albumin (P02769 whole entry): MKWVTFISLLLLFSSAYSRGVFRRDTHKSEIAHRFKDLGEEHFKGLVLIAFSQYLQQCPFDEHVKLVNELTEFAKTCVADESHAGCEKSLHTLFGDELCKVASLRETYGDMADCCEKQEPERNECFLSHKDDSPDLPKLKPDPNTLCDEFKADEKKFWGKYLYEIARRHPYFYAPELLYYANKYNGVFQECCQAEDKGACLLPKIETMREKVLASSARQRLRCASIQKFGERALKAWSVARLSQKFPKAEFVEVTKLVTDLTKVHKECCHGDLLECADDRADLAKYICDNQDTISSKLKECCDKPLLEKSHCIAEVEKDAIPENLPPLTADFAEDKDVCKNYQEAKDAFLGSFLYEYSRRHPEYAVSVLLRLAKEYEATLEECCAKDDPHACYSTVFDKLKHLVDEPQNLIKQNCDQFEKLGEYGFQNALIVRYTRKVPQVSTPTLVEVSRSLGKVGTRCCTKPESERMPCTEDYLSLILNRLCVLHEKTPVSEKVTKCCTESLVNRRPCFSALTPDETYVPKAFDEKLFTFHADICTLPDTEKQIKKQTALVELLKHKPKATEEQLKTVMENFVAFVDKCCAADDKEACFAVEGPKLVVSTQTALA
Chain of Beta-2 adrenergic receptor (P07550 whole entry): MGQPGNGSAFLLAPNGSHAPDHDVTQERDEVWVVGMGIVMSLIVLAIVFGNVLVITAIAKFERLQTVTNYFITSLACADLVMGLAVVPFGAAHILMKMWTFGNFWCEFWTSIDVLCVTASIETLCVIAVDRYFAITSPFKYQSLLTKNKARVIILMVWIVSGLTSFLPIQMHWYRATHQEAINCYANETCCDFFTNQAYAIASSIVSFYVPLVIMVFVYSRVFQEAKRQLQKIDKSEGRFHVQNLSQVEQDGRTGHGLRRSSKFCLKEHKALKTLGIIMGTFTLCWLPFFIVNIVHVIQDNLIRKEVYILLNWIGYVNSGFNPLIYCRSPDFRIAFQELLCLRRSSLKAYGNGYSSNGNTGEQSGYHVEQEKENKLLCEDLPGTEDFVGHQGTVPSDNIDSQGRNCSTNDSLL
Chain of Eukaryotic translation initiation factor 4E (P63073 whole entry): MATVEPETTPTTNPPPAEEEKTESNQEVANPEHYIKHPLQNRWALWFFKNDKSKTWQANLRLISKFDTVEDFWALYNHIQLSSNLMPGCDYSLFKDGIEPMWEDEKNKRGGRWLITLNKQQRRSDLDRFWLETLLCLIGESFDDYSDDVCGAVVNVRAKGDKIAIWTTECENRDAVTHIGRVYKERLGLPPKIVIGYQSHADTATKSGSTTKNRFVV
Chain of Genome polyprotein (P29990 2492-3391 limits assumed): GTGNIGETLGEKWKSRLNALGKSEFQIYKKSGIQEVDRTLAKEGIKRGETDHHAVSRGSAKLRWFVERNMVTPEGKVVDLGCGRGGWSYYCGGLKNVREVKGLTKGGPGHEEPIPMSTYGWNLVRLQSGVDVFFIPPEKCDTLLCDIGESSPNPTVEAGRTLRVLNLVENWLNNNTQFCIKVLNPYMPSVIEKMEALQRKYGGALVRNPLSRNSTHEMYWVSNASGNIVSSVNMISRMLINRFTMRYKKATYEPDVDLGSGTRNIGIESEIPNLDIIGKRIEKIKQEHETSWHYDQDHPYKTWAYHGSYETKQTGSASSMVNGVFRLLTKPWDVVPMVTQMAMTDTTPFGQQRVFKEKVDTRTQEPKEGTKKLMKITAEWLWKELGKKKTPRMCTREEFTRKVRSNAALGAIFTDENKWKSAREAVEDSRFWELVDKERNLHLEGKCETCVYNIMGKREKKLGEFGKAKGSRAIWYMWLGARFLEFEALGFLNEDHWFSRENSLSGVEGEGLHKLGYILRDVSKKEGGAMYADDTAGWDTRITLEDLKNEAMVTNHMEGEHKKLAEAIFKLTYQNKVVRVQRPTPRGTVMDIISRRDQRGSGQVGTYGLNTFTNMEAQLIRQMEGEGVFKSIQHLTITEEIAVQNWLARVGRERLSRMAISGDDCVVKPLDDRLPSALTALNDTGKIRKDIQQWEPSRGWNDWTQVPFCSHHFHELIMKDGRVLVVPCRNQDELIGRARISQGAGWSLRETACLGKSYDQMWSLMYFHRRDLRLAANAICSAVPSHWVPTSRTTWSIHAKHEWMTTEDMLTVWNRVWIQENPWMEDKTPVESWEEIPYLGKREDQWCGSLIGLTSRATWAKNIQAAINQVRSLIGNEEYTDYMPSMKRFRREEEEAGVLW
Chain of ATP-dependent molecular chaperone HSP82 (C4YTQ8 whole entry): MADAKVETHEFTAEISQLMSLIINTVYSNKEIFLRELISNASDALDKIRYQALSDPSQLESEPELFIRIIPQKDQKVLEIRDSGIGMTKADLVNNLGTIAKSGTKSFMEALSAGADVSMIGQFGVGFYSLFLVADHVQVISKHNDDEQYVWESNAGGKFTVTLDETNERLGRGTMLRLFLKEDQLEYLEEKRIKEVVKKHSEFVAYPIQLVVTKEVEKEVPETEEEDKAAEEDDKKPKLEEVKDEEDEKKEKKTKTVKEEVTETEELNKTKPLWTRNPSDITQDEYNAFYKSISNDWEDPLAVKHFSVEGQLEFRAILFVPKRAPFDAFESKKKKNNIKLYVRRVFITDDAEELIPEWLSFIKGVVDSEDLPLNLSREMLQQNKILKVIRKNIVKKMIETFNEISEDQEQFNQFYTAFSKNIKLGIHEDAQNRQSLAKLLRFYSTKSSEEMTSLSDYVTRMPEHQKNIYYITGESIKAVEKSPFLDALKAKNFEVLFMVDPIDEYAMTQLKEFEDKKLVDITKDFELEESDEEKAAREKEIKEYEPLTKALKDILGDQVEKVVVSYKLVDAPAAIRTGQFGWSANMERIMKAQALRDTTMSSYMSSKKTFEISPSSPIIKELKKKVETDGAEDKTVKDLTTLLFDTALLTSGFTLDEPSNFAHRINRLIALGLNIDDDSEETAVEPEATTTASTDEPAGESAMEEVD
Chain of Luciferin 4-monooxygenase (P08659 whole entry): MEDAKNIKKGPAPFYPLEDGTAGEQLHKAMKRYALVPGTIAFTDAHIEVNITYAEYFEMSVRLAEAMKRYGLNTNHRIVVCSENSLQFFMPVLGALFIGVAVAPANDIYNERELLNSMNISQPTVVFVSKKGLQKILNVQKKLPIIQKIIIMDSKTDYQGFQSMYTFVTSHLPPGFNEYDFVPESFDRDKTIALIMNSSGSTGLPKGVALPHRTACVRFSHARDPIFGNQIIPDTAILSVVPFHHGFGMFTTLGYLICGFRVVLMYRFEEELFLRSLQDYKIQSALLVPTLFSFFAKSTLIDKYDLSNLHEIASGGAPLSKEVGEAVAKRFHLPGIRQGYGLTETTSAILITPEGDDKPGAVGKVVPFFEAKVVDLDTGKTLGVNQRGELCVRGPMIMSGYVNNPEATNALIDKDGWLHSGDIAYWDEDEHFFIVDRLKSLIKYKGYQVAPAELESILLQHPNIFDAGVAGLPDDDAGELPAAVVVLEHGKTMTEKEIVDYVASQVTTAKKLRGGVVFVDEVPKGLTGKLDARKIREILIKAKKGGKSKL

For Cc1ccc(S(=O)(=O)Cc2ccc(C(=O)N3CCN(c4cccc(C)c4C)CC3)o2)cc1, the IC50 [1] was > 80 µM (inactive), the EC50 (BJ [2]) was 4.2 µM (active) and the EC50 [3] was > 112 µM (not active). The EC50 (BJ [4]) was 8.13 µM (inconclusive), the EC50 (BJ [5]) was 18 µM (active) and the EC50 [6] was 57.2 µM (active). For the same compound, the EC50 [7] was 13.3 µM (inconclusive).
In the case of CCn1c(=O)n(C)c(=O)n([C@@H](Cc2ccccc2)C(N)=O)c1=O, the IC50 [8] is reported as > 100 µM (not active), the IC50 [9] is reported as > 100 µM (not active) and the IC50 [10] is reported as > 100 µM (inactive). For the same compound, the IC50 [11] was > 100 µM (inactive).
For CCCn1c(=O)nc(NCc2ccccc2OC)[nH]c1=O, the IC50 [8] was > 100 µM (not active), the IC50 [9] was > 100 µM (not active) and the IC50 [10] was > 100 µM (inactive). For the same compound, the IC50 [11] was > 100 µM (inactive).
For O=C(N/N=C\c1cc(Cl)ccc1O)c1ccc(S(=O)(=O)N2CCCCC2)cc1, the AC50 (INS1) was 1.01 µM (active), the EC50 (cells [12]) was > 350 µM (not active) and the EC50 (cells [13]) was 265 µM (active). For the same compound, the AC50 [14] was 2.81 µM (active), the EC50 [15] was 63.9 µM (inconclusive) and the EC50 [16] was 0.381 µM (active). For the same compound, the AC50 (A-375) was 46.3 µM (active).
For Cc1ccc(Nc2nc(N)c([N+](=O)[O-])c(N3CCC(C)CC3)n2)cc1C, the EC50 [17] was > 180 µM (inactive), the EC50 [18] was 4.42 µM (active) and the EC50 [19] was 9.17 µM (active). For the same compound, the EC50 [15] was > 150 µM (inactive) and the EC50 [16] was 0.207 µM (active).
With CC(C)CC(=O)NC(c1ccccc1)c1ccc2cccnc2c1O (stereo not drawn) the IC50 (HEK293 [20]) was 10.4 µM (active), the IC50 (HEK293 [21]) was 7.19 µM (active) and the IC50 (Jurkat) was 4.18 µM (active).
For CCOCCCNC(=O)c1cc(-c2cccnc2)nc2ccc(S(=O)(=O)N3CCC(C)CC3)cc12, the EC50 [22] was 6.09 µM (inactive).
In the case of Cc1ccccc1C(=O)Nc1cccc(C(=O)N/N=C/c2cc(Cl)cc([N+](=O)[O-])c2O)c1, the IC50 (SUMO-activating enzyme [23]) is reported as > 100 µM (inactive), the AC50 (INS1) is reported as 7.14 µM (active) and the IC50 [24] is reported as 50 µM (inactive). The AC50 [25] was 95.3 µM (active), the IC50 (Genome polyprotein) was > 100 µM (active) and the IC50 (Albumin) was > 94.1 µM (inactive). The CC50 (Vero [26]) was 33 µM (active) and the IC50 (SUMO-activating enzyme [27]) was 6.22 µM (active).
With Cc1ccc(-n2ncc3c(SCc4cccnc4)ncnc32)c(C)c1 the IC50 (Vero [28]) was 21.8 µM (active), the IC50 [29] was 1.77 µM (active) and the IC50 [30] was 1.09 µM (active). For the same compound, the CC50 (Vero [31]) was 20.9 µM (active).
